Results taken from patent US9221792B2, “N-(4-(azetidine-1-carbonyl) phenyl)-(hetero-) arylsulfonamide derivatives as pyruvate kinase M2 (PMK2) modulators” (AGIOS PHARMACEUTICALS, INC, priority 2010, dated 2015).

The molecules below were run against PKM2 (Homo sapiens, UniProt P14618) (assay: PKM2 Assay (activation, LDH-coupled NADH absorbance at 340 nm)). Settings: activation of PKM2; PKM2 50 ng/well, ADP 0.7 mM, PEP 0.15 mM, room temperature (25° C.); read-out: AC50.
Type: biochemical
Experimental: • PKM2 stock enzyme solution was diluted in Reaction Buffer • 2 μL of compound was added into each well first, and then 180 μL of the Reaction Mix was added. • Reaction mixture with compound (without ADP) were incubated for 30 minutes at 4° C. • Plates were re-equilibrated to room temperature prior to adding 20 μL ADP to initiate the reaction. • Reaction progress was measured as changes in absorbance at 340 nm wavelength at room temperature (25° C.) Reaction Mix: PKM2 (50 ng/well), ADP (0.7 mM), PEP (0.15 mM), NADH (180 μM), LDH (2 units) in Reaction Buffer Reaction Buffer: 100 mM KCl, 50 mM Tris pH 7.5, 5 mM MgCl2, 1 mM DTT, 0.03% BSA.
Certain compounds of Formula I were tested in the above-described assay. A compound described herein may be tested for its ability to activate PKM2. The activation activity of these compounds is represented as an AC50 in Table 2 and throughout the application. […] “B” refers to an activator of PKM2 with an EC50 between 100 nM and 1 μM. “C” refers to an activator of PKM2 with an EC50 between 1 μM and 10 μM. “D” refers to an activator of PKM2 with an EC50 greater than 10 μM. “NA” refers to data that is not available.

Chain of PKM2 (P14618 whole entry): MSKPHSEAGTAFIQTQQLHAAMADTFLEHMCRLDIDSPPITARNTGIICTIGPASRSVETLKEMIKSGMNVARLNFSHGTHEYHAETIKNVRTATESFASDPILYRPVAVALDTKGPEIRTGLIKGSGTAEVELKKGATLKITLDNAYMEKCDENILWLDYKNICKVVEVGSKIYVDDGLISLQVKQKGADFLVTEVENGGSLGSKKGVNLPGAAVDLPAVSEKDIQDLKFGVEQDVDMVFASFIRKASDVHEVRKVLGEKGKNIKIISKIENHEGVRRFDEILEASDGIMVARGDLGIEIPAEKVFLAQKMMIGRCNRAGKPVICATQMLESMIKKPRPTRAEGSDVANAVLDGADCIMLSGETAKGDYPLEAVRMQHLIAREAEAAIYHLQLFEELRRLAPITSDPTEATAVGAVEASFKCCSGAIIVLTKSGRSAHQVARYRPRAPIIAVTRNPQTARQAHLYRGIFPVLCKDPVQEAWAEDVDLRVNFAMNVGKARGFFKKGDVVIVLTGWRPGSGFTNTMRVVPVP

Compound	AC50 [µM]
C=CCNC(=O)NC1CN(C(=O)c2ccc(NS(=O)(=O)c3cccc4cccnc34)cc2)C1 [Compound 139, N-(4-(3-(3-Allylureido)azetidine-1-carbonyl)phenyl)quinoline-8-sulfonamide]	1 to 10
C=CCNC(=O)NC1CN(C(=O)c2ccc(NS(=O)(=O)c3cccc4cccnc34)c(OC)c2)C1 [Compound 140, N-(4-(3-(3-Allylureido)azetidine-1-carbonyl)-2-methoxyphenyl)quinoline-8-sulfonamide]	1 to 10
Cc1cc(C(=O)N2CC(O)C2)ccc1NS(=O)(=O)c1cccc2cccnc12 [Compound 142]	1 to 10
Cc1cc(C(=O)N2CC(C)(O)C2)ccc1NS(=O)(=O)c1cccc2cccnc12 [Compound 144]	1 to 10
O=C(c1ccc(NS(=O)(=O)c2cccc3cccnc23)cc1)N1CC(NCc2ccccc2)C1 [Compound 147, N-(4-(3-(benzylamino)azetidine-1-carbonyl)phenyl)quinoline-8-sulfonamide]	0.1 to 1
Cc1cc(C(=O)N2CC(Nc3ccccn3)C2)ccc1NS(=O)(=O)c1cccc2cccnc12 [Compound 151]	< 0.1
COc1ccccc1OC1CN(C(=O)c2ccc(NS(=O)(=O)c3cccc4cccnc34)c(F)c2)C1 [Compound 154]	0.1 to 1
Cc1cc(C(=O)N2CC(OC(=O)Nc3ccccn3)C2)ccc1NS(=O)(=O)c1cccc2cccnc12 [Compound 155, 1-(3-Methyl-4-(quinoline-8-sulfonamido)benzoyl)azetidin-3-yl pyridin-2-ylcarbamate]	0.1 to 1
COc1ccccc1OC1CN(C(=O)c2ccc(NS(=O)(=O)c3cccc4cccnc34)c(C)c2)C1 [Compound 159]	< 0.1
O=C(Nc1ccccn1)OC1CN(C(=O)c2ccc(NS(=O)(=O)c3cccc4cccnc34)c(F)c2)C1 [Compound 162, 1-(3-Fluoro-4-(quinoline-8-sulfonamido)benzoyl)azetidin-3-yl pyridin-2-ylcarbamate]	> 10
O=C(c1ccc(NS(=O)(=O)c2cccc3cccnc23)cc1)N1CC(=Cc2ccccc2)C1 [Compound 165]	0.1 to 1

The remaining lines, values ahead:

AC50 [µM]	Compound
> 10	O=C(c1ccc(NS(=O)(=O)c2cccc3cccnc23)cc1)N1CC(O)C1 [Compound 141]
> 10	COc1cc(NS(=O)(=O)c2cccc3cccnc23)ccc1C(=O)N1CC(O)C1 [Compound 143]
< 0.1	Cc1cc(C(=O)N2CC(Nc3ccccc3)C2)ccc1NS(=O)(=O)c1cccc2cccnc12 [Compound 145]
0.1 to 1	CN(Cc1ccccc1)C1CN(C(=O)c2ccc(NS(=O)(=O)c3cccc4cccnc34)cc2)C1 [Compound 146]
0.1 to 1	COc1ncccc1NC1CN(C(=O)c2ccc(NS(=O)(=O)c3cccc4cccnc34)c(C)c2)C1 [Compound 148]
< 0.1	COc1cccnc1NC1CN(C(=O)c2ccc(NS(=O)(=O)c3cccc4cccnc34)c(C)c2)C1 [Compound 149]
< 0.1	COc1ccccc1OC1CN(C(=O)c2ccc(NS(=O)(=O)c3cccc4cccnc34)cc2OC)C1 [Compound 150]
0.1 to 1	COc1ccncc1NC1CN(C(=O)c2ccc(NS(=O)(=O)c3cccc4cccnc34)c(C)c2)C1 [Compound 153]
0.1 to 1	COc1cc(C(=O)N2CC(OC(=O)Nc3ccccn3)C2)ccc1NS(=O)(=O)c1cccc2cccnc12 [Compound 156, 1-(3-Methoxy-4-(quinoline-8-sulfonamido)benzoyl)azetidin-3-yl pyridin-2-ylcarbamate]
0.1 to 1	COc1cc(NS(=O)(=O)c2cccc3cccnc23)ccc1C(=O)N1CC(OC(=O)Nc2ccccn2)C1 [Compound 157, 1-(2-Methoxy-4-(quinoline-8-sulfonamido)benzoyl)azetidin-3-yl pyridin-2-ylcarbamate]
< 0.1	COc1cc(C(=O)N2CC(Oc3ccccc3OC)C2)ccc1NS(=O)(=O)c1cccc2cccnc12 [Compound 158]
0.1 to 1	O=C(Nc1ccccn1)NC1CN(C(=O)c2ccc(NS(=O)(=O)c3cccc4cccnc34)cc2)C1 [Compound 160, N-(4-(3-(3-(Pyridin-2-yl)ureido)azetidine-1-carbonyl)phenyl)quinoline-8-sulfonamide]
1 to 10	O=C(Nc1ccccn1)OC1CN(C(=O)c2ccc(NS(=O)(=O)c3cccc4cccnc34)cc2)C1 [Compound 161, 1-(4-(Quinoline-8-sulfonamido)benzoyl)azetidin-3-ylpyridin-2-ylcarbamate]
1 to 10	CC(C)NC(=O)NC1CN(C(=O)c2ccc(NS(=O)(=O)c3cccc4cccnc34)cc2)C1 [Compound 163]
0.1 to 1	Cc1cc(C(=O)N2CC(NC(=O)NC(C)C)C2)ccc1NS(=O)(=O)c1cccc2cccnc12 [Compound 164]
